Measurements: patent publication US10206394B2, “Herbicidal compounds” (Syngenta Participations AG, priority 2014, dated 2019)
Like-named read-outs stand apart in the source and are kept apart here.

Key:
Experiment in all cases: Glasshouse assay for herbicidal activity (pre- and post-emergence), percentage phytotoxicity
Format in all cases: in vivo
[1] = system: Echinochloa crus-galli (ECHCG); settings: Echinochloa crus-galli, 250 g/ha
Procedure: (§1) Test—Glasshouse Assay for Herbicidal Activity
(§2) Seeds of a variety of monocotyledonous and dicotyledonous test plants are sown in standard soil in pots. The plants are cultivated for one day (for pre-emergence (PRE)) or for about 12 days (for post-emergence (POST)) under controlled conditions in a glasshouse (warm climate species at 24/18° C., cool climate species at 20/16° C., both at day/night; 16 hours light; 65% humidity).
(§3) The test plants are then grown on, in a glasshouse (greenhouse) under controlled conditions (warm climate species at 24/18° C., cool climate species at 20/16° C., both at day/night; 16 hours light; 65% humidity) and are watered twice daily. 15 days after application of the test herbicide (15 DAA) (for post-emergence), and 20 days after application of the test herbicide (20 DAA) (for pre-emergence), the test plants are evaluated visually, and an assessed percentage phytotoxicity score is given for each herbicidal application on each plant species (with 100%=total damage to plant; 0%=no damage to plant).
(§4) The plant species tested are as follows: Alopecurus myosuroides (ALOMY), Avena fatua (AVEFA), Lolium perenne (LOLPE), Echinochloa crus-galli (ECHCG).

Lolium perenne (LOLPE) = settings: Lolium perenne, 250 g/ha
Procedure: as §1, §2, §3, §4

Avena fatua (AVEFA) = settings: Avena fatua, 250 g/ha
Procedure: as §1, §2, §3, §4

[2] = system: Alopecurus myosuroides (ALOMY); settings: Alopecurus myosuroides, 250 g/ha
Procedure: as §1, §2, §3, §4

[3] = post-emergence, 360 h, post-emergence, 15 DAA, visual score (100%=total damage; 0%=no damage), read-out: ECHCG POST herbicidal activity (percentage phytotoxicity)
[4] = pre-emergence, 480 h, pre-emergence, 20 DAA, visual score (100%=total damage; 0%=no damage), read-out: ECHCG PRE herbicidal activity (percentage phytotoxicity)
[5] = post-emergence, 360 h, post-emergence, 15 DAA, visual score (100%=total damage; 0%=no damage), read-out: LOLPE POST herbicidal activity (percentage phytotoxicity)
[6] = pre-emergence, 480 h, pre-emergence, 20 DAA, visual score (100%=total damage; 0%=no damage), read-out: LOLPE PRE herbicidal activity (percentage phytotoxicity)
[7] = post-emergence, 360 h, post-emergence, 15 DAA, visual score (100%=total damage; 0%=no damage), read-out: AVEFA POST herbicidal activity (percentage phytotoxicity)
[8] = pre-emergence, 480 h, pre-emergence, 20 DAA, visual score (100%=total damage; 0%=no damage), read-out: AVEFA PRE herbicidal activity (percentage phytotoxicity)
[9] = post-emergence, 360 h, post-emergence, 15 DAA, visual score (100%=total damage; 0%=no damage), read-out: ALOMY POST herbicidal activity (percentage phytotoxicity)
[10] = pre-emergence, 480 h, pre-emergence, 20 DAA, visual score (100%=total damage; 0%=no damage), read-out: ALOMY PRE herbicidal activity (percentage phytotoxicity)

Compound | pest or weed control at 250 g/ha [1, 3] | pest or weed control at 250 g/ha [1, 4] | pest or weed control at 250 g/ha (Lolium perenne (LOLPE); [5]) | pest or weed control at 250 g/ha (Lolium perenne (LOLPE); [6]) | pest or weed control at 250 g/ha (Avena fatua (AVEFA); [7]) | pest or weed control at 250 g/ha (Avena fatua (AVEFA); [8]) | pest or weed control at 250 g/ha [2, 9] | pest or weed control at 250 g/ha [2, 10] | pest or weed control at 250 g/ha ([1]; post-emergence, 360 h, post-emergence, 15 DAA, visual assessment (100%=total damage, 0%=no damage), read-out: Post-emergence herbicidal activity (percentage phytotoxicity) ECHCG POST) | pest or weed control at 250 g/ha ([1]; pre-emergence, 480 h, pre-emergence, 20 DAA, visual assessment (100%=total damage, 0%=no damage), read-out: Pre-emergence herbicidal activity (percentage phytotoxicity) ECHCG PRE) | pest or weed control at 250 g/ha (Lolium perenne (LOLPE); post-emergence, 360 h, post-emergence, 15 DAA, visual assessment (100%=total damage, 0%=no damage), read-out: Post-emergence herbicidal activity (percentage phytotoxicity) LOLPE POST) | pest or weed control at 250 g/ha (Lolium perenne (LOLPE); pre-emergence, 480 h, pre-emergence, 20 DAA, visual assessment (100%=total damage, 0%=no damage), read-out: Pre-emergence herbicidal activity (percentage phytotoxicity) LOLPE PRE) | pest or weed control at 250 g/ha (Avena fatua (AVEFA); post-emergence, 360 h, post-emergence, 15 DAA, visual assessment (100%=total damage, 0%=no damage), read-out: Post-emergence herbicidal activity (percentage phytotoxicity) AVEFA POST) | pest or weed control at 250 g/ha (Avena fatua (AVEFA); pre-emergence, 480 h, pre-emergence, 20 DAA, visual assessment (100%=total damage, 0%=no damage), read-out: Pre-emergence herbicidal activity (percentage phytotoxicity) AVEFA PRE) | pest or weed control at 250 g/ha ([2]; post-emergence, 360 h, post-emergence, 15 DAA, visual assessment (100%=total damage, 0%=no damage), read-out: Post-emergence herbicidal activity (percentage phytotoxicity) ALOMY POST) | pest or weed control at 250 g/ha ([2]; pre-emergence, 480 h, pre-emergence, 20 DAA, visual assessment (100%=total damage, 0%=no damage), read-out: Pre-emergence herbicidal activity (percentage phytotoxicity) ALOMY PRE)
COCCOCCCNC(=O)CC1CC(=O)C(c2c(C)cc(C)cc2C)C1=O (stereo not drawn) [Compound A179] | 100% | 80% | 80% | 90% | 100% | 90% | 100% | 100% |  |  |  |  |  |  |  | 
Cc1cc(C)c(C2C(=O)CC(CC(=O)NCC3(F)COC3)C2=O)c(C)c1 (stereo not drawn) [Compound A180] | 70% | 20% | 30% | 0% | 70% | 0% | 70% | 40% |  |  |  |  |  |  |  | 
Cc1cc(C)c(C2C(=O)CC(CC(=O)NC3CC(F)C3)C2=O)c(C)c1 (stereo not drawn) [Compound A181] | 80% | 90% | 100% | 100% | 90% | 90% | 90% | 90% |  |  |  |  |  |  |  | 
Cc1cc(C)c(C2C(=O)CC(CC(=O)NC3COC3)C2=O)c(C)c1 (stereo not drawn) [Compound A182] | 80% | 0% | 40% | 70% | 70% | 20% | 70% | 70% |  |  |  |  |  |  |  | 
Cc1cc(C)c(C2C(=O)CC(CC(=O)NCC3CCC3)C2=O)c(C)c1 (stereo not drawn) [Compound A184] | 90% | 90% | 80% | 90% | 70% | 0% | 90% | 90% |  |  |  |  |  |  |  | 
Cc1cc(C)c(C2C(=O)CC(CC(=O)NC3CC(F)(F)C3)C2=O)c(C)c1 (stereo not drawn) [Compound A185] | 70% | 70% | 70% | 70% | 80% | 60% | 80% | 80% |  |  |  |  |  |  |  | 
Cc1cc(-c2nccs2)cc(C)c1C1C(=O)CC(CC(=O)NC(C)(C)C)C1=O (stereo not drawn) [Compound A186] | 80% | 70% | 60% | 60% | 30% | 0% | 40% | 40% |  |  |  |  |  |  |  | 
Cc1cc(C)c(C2C(=O)CC(CC(N)=O)C2=O)c(C)c1 (stereo not drawn) [Compound A187] | 100% | 90% | 90% | 100% | 100% | 90% | 80% | 80% |  |  |  |  |  |  |  | 
Cc1cc(C)c(C2C(=O)CC(CC(=O)Nc3ccc(C#N)cc3)C2=O)c(C)c1 (stereo not drawn) [Compound B1] |  |  |  |  |  |  |  |  | 60% | 70% | 20% | 20% | 0% | 0% | 0% | 20%
